In patent US11840686B2, “Modulation of prekallikrein (PKK) expression” (Ionis Pharmaceuticals, Inc., priority 2013, dated 2023):
Strand notation (5' to 3'): a small letter for the sugar, then the base; units joined by * are phosphorothioate-linked, units joined directly phosphodiester-linked; [ ] holds rarer units or linkages, { } end groups; capitals alone tell only the bases. e = 2'-O-(2-methoxyethyl) (MOE); [5mC] = 5-methylcytosine; d = 2'-deoxy (DNA)

System: human PKK mRNA
Experiment: Antisense inhibition of human PKK mRNA in HepaRG cells, 5,000 nM (Example 2)
Format: cell-based
Outline: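 Percent inhibition of PKK mRNA is reported relative to untreated cells, after adjustment for total RNA by RIBOGREEN. Gapmers of 16–20 nucleosides with 2′-MOE wings were delivered at 5,000 nM by electroporation into HepaRG cells and left for roughly 24 hours before RNA isolation.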

[1] = HepaRG cells, electroporation with 5,000 nM antisense oligonucleotide, approximately 24 hours, PKK mRNA by RT-PCR (RTS3454), relative to untreated control cells, Table 5 experiment
[2] = HepaRG cells, 5,000 nM antisense oligonucleotide, 5-10-5 gapmers, Table 17
[3] = HepaRG cells, 5,000 nM antisense oligonucleotide, 5-10-5 gapmers, Table 16
[4] = human PKK mRNA, HepaRG cells, 5-10-5 motif oligonucleotides targeting SEQ ID NO: 1 and 10
[5] = HepaRG cells, electroporation, 5,000 nM antisense oligonucleotide, approx. 24 hours, primer probe set RTS3454, relative to untreated control cells, Table 12
[6] = human PKK mRNA in HepaRG cells, 5-10-5 gapmers, Table 14
[7] = Table 7, HepaRG cells, electroporation with 5,000 nM antisense oligonucleotide, approx. 24 hours, PKK mRNA by RT-PCR (RTS3454), relative to untreated control cells
[8] = HepaRG cells, electroporation with 5,000 nM antisense oligonucleotide, approximately 24 hours, PKK mRNA by RT-PCR (RTS3454), relative to untreated control cells, Table 6 experiment
[9] = Table 9 experiment, HepaRG cells, 20,000 cells per well, electroporation with 5,000 nM antisense oligonucleotide, approx. 24 hours, PKK mRNA by RT-PCR (RTS3454), relative to untreated control cells
[10] = Table 10 experiment, HepaRG cells, 20,000 cells per well, electroporation with 5,000 nM antisense oligonucleotide, approx. 24 hours, PKK mRNA by RT-PCR (RTS3454), relative to untreated control cells
[11] = HepaRG cells, electroporation, 5,000 nM antisense oligonucleotide, approx. 24 hours, primer probe set RTS3454, relative to untreated control cells, Table 11
[12] = Table 13, human PKK mRNA in HepaRG cells, 5-10-5 gapmers

547435 (antisense e[5mC]*eA*eA*eG*eA*dA*dG*dA*dG*dT*dT*dT*dG*dT*dT*e[5mC]*e[5mC]*eT*e[5mC]*e[5mC]) [compound 547435]
% inhibition (Table 8, HepaRG cells, electroporation with 5,000 nM antisense oligonucleotide, approx. 24 hours, PKK mRNA by RT-PCR (RTS3454), relative to untreated control cells): 85%

546164 (eT*eG*eA*eT*eT*dG*dA*dA*d[5mC]*dT*dT*dG*d[5mC]*dT*dG*eG*eA*eA*eG*eA; antisense) [compound 546164]
% inhibition [1]: 33%

547049 (e[5mC]*eA*e[5mC]*eT*eT*d[5mC]*d[5mC]*d[5mC]*dA*dG*d[5mC]*dA*dA*d[5mC]*d[5mC]*e[5mC]*eT*e[5mC]*eA*e[5mC]; antisense) [compound 547049]
% inhibition [2]: 20%

546942 (eT*eA*e[5mC]*eA*e[5mC]*dT*dG*dA*dA*d[5mC]*d[5mC]*d[5mC]*d[5mC]*d[5mC]*dT*eT*eA*eG*eG*e[5mC]; antisense) [compound 546942]
% inhibition [3]: 56%

547634 (antisense eA*eT*e[5mC]*eA*e[5mC]*dT*dG*dT*dA*d[5mC]*dT*dA*dG*dT*dT*eT*eT*e[5mC]*eT*eA) [compound 547634]
% inhibition [4]: 72%

547721 (e[5mC]*eT*e[5mC]*eT*eA*dT*d[5mC]*dA*dA*dA*dA*dT*d[5mC]*d[5mC]*dT*eG*e[5mC]*eT*eG*e[5mC]; antisense) [compound 547721]
% inhibition [3]: 68%

548738 (DNA eT*eA*e[5mC]*eT*dA*dG*dT*dT*dT*d[5mC]*d[5mC]*dT*dA*eT*eA*eA*e[5mC]; antisense) [compound 548738]
% inhibition (human PKK mRNA, HepaRG cells, 5,000 nM antisense oligonucleotide, Table 18): 0%

547533 (antisense eT*eT*eT*eT*eG*d[5mC]*dT*dT*dG*dG*d[5mC]*dT*dT*d[5mC]*dA*eA*eT*eA*eT*eT) [compound 547533]
% inhibition [5]: 23%

546851 (eA*eG*eT*eA*eT*d[5mC]*dA*d[5mC]*dT*dG*dT*d[5mC]*d[5mC]*dT*dA*eT*eA*eT*e[5mC]*eA; antisense) [compound 546851]
% inhibition [6]: 81%

547406 (e[5mC]*eT*e[5mC]*e[5mC]*eT*d[5mC]*d[5mC]*dA*dA*dA*dG*dT*d[5mC]*dA*dA*e[5mC]*eT*e[5mC]*e[5mC]*e[5mC]; antisense) [compound 547406]
% inhibition [7]: 81%

547409 (eA*eG*eT*e[5mC]*eA*d[5mC]*dA*dT*dT*d[5mC]*dA*dA*dT*dT*d[5mC]*eT*eT*e[5mC]*eT*e[5mC]; antisense) [compound 547409]
% inhibition [7]: 67%

547345 (antisense eA*eG*eA*e[5mC]*eA*d[5mC]*dA*dT*dT*dA*dA*dA*dA*dT*dT*eG*eA*e[5mC]*eT*e[5mC]) [compound 547345]
% inhibition [8]: 80%

547635 (eT*eA*eT*e[5mC]*eA*d[5mC]*dT*dG*dT*dA*d[5mC]*dT*dA*dG*dT*eT*eT*eT*e[5mC]*eT; antisense) [compound 547635]
% inhibition [4]: 53%

547473 (antisense eT*eT*eT*eG*eG*dA*dT*dT*dT*d[5mC]*dA*d[5mC]*d[5mC]*dT*dT*eT*e[5mC]*eT*e[5mC]*e[5mC]) [compound 547473]
% inhibition [9]: 5%
% inhibition [10]: 26%

547369 (eA*eA*eG*e[5mC]*eA*dT*d[5mC]*dT*dG*dG*dA*dG*dT*dG*dA*eG*eA*eA*e[5mC]*e[5mC]; antisense) [compound 547369]
% inhibition [7]: 76%

546915 (eT*e[5mC]*eA*e[5mC]*eT*dG*dT*d[5mC]*d[5mC]*dT*dA*dT*dA*dA*d[5mC]*eT*eA*eT*eA*eT; antisense) [compound 546915]
% inhibition [3]: 39%

547525 (antisense e[5mC]*e[5mC]*eT*e[5mC]*eG*d[5mC]*dA*dT*dT*dG*dT*d[5mC]*dA*dG*d[5mC]*e[5mC]*e[5mC]*e[5mC]*eT*eG) [compound 547525]
% inhibition [11]: 78%

547303 (antisense eT*eT*e[5mC]*eT*e[5mC]*d[5mC]*dA*dT*dG*dT*d[5mC]*dA*dT*dT*dG*eA*eT*eT*eG*eA) [compound 547303]
% inhibition [1]: 72%

547401 (eG*eA*eA*eT*eG*dG*d[5mC]*dA*dG*dG*dG*dT*dT*d[5mC]*dA*eG*eG*eT*eA*eA; antisense) [compound 547401]
% inhibition [7]: 22%

546705 (e[5mC]*e[5mC]*e[5mC]*e[5mC]*eT*dG*dT*dA*dG*dT*dT*dG*dG*d[5mC]*dT*eG*eT*eG*eG*eT; antisense) [compound 546705]
% inhibition [5]: 66%

546817 (eG*e[5mC]*eT*e[5mC]*eT*dG*dA*dG*d[5mC]*d[5mC]*dT*dT*d[5mC]*d[5mC]*dG*e[5mC]*e[5mC]*eT*e[5mC]*eT; antisense) [compound 546817]
% inhibition [12]: 77%

546893 (e[5mC]*eA*e[5mC]*eT*eG*dT*d[5mC]*d[5mC]*dT*dA*dT*dG*dT*d[5mC]*dA*e[5mC]*eT*eG*eT*eA; antisense) [compound 546893]
% inhibition [4]: 70%

547290 (antisense eA*eG*e[5mC]*eT*eA*d[5mC]*dA*dT*d[5mC]*d[5mC]*d[5mC]*d[5mC]*dA*d[5mC]*d[5mC]*eT*e[5mC]*eT*eG*eA) [compound 547290]
% inhibition [1]: 76%

547386 (eA*e[5mC]*eT*eT*eG*dG*dT*dG*dT*dG*d[5mC]*d[5mC]*dA*d[5mC]*dT*eT*eT*e[5mC]*eA*eG; antisense) [compound 547386]
% inhibition [7]: 78%

547389 (e[5mC]*eA*eG*eA*eT*dA*dT*dG*dG*dT*dG*dT*dT*dT*dT*e[5mC]*eT*eT*eG*eA; antisense) [compound 547389]
% inhibition [7]: 61%

547484 (antisense e[5mC]*eT*eA*eA*eG*dG*dG*dA*d[5mC]*d[5mC]*dA*d[5mC]*d[5mC]*dT*dG*eA*eA*eT*e[5mC]*eT) [compound 547484]
% inhibition [9]: 69%
% inhibition [10]: 64%

547402 (eT*eT*eT*eA*eG*dA*dA*dT*dG*dG*d[5mC]*dA*dG*dG*dG*eT*eT*e[5mC]*eA*eG; antisense) [compound 547402]
% inhibition [7]: 59%

547571 (eA*eA*eA*eT*eG*dA*d[5mC]*dA*d[5mC]*d[5mC]*dA*dA*dA*dA*dT*eT*eG*eA*eG*eT; antisense) [compound 547571]
% inhibition [12]: 14%

547715 (eG*eG*eT*e[5mC]*eA*dG*dA*dA*dG*dG*d[5mC]*d[5mC]*dT*d[5mC]*dT*eT*eA*eT*eT*e[5mC]; antisense) [compound 547715]
% inhibition [3]: 21%

547328 (antisense eA*eT*eT*eT*eG*dA*dT*dG*dA*d[5mC]*d[5mC]*dA*d[5mC]*dA*dT*eT*eG*e[5mC]*eT*eT) [compound 547328]
% inhibition [8]: 40%

547778 (antisense eT*e[5mC]*eA*e[5mC]*e[5mC]*dT*dG*dT*dG*dA*dG*dT*dA*dA*d[5mC]*e[5mC]*eA*eA*eT*eA) [compound 547778]
% inhibition [2]: 53%

547536 (antisense eT*eG*e[5mC]*eA*eT*dA*dG*dA*d[5mC]*d[5mC]*d[5mC]*d[5mC]*dA*dA*d[5mC]*eA*eG*eA*e[5mC]*eA) [compound 547536]
% inhibition [5]: 48%

547379 (e[5mC]*eT*e[5mC]*eG*eA*dT*dT*dT*dT*d[5mC]*d[5mC]*dA*dT*dA*d[5mC]*eA*eT*eT*eT*eG; antisense) [compound 547379]
% inhibition [7]: 37%

546868 (eT*eA*e[5mC]*e[5mC]*eT*dA*dT*dA*dA*d[5mC]*dT*d[5mC]*dT*dA*dA*e[5mC]*eA*eG*eT*eA; antisense) [compound 546868]
% inhibition [6]: 51%

546373 (antisense e[5mC]*eT*e[5mC]*eA*eG*dA*dA*dT*dT*dT*dG*dA*d[5mC]*dT*dT*eG*eA*eA*e[5mC]*eT) [compound 546373]
% inhibition [11]: 59%

547631 (antisense e[5mC]*eA*e[5mC]*eT*eG*dT*d[5mC]*d[5mC]*dT*dA*dT*dA*dT*d[5mC]*dA*e[5mC]*eT*e[5mC]*eT*eA) [compound 547631]
% inhibition [4]: 85%

547307 (antisense eG*eA*eA*eG*e[5mC]*dA*dA*d[5mC]*d[5mC]*dA*dA*dA*d[5mC]*d[5mC]*dT*eT*eT*eT*e[5mC]*eT) [compound 547307]
% inhibition [1]: 58%

547684 (antisense eT*eA*eA*e[5mC]*eT*dA*dT*dA*dT*d[5mC]*dA*d[5mC]*dT*dG*dT*e[5mC]*e[5mC]*eT*eA*eT) [compound 547684]
% inhibition [3]: 43%

547390 (eA*eT*e[5mC]*e[5mC]*eA*dG*dA*dT*dA*dT*dG*dG*dT*dG*dT*eT*eT*eT*e[5mC]*eT; antisense) [compound 547390]
% inhibition [7]: 63%
